Test results: ChEMBL document CHEMBL5634093, “Elemental exchange: Bioisosteric replacement of phosphorus by boron in drug design” (Eur J Med Chem, 2023)
Values after ≈ are worked out from the molar mass of the structure shown. Blank lines part the entries; values can stand above or below the compound they belong to.

Tests used:
[1] = tested on: Toxoplasma gondii; experiment: Antiparasitic activity against Toxoplasma gondii tachyzoites infected in human HeLa cells; type: functional, organism-based
[2] = tested on: Trypanosoma cruzi; experiment: Antitrypanosomal activity against Trypanosoma cruzi trypomastigotes assessed as parasite growth inhibition; type: functional, organism-based
[3] = Binding affinity to PDE4 (unknown origin) expressed in Escherichia coli using cAMP as substrate assessed as inhibition constant by fluorescence polarization assay; design: species or system Homo sapiens
[4] = Inhibition of human recombinant catalytic domain PDE4 (152 to 484 residues) by fluorescence polarization assay
[5] = biological target: Autotaxin (Homo sapiens, UniProt Q13822); experiment: Inhibition of ATX (unknown origin)

Structure (SMILES): O=C(O)CCc1cccc2c1B(O)OC2
IC50 [1]: 900 nM

Structure (SMILES): N#Cc1ccc(Oc2ccc3c(c2)COB3O)cc1C#N
Ki [3]: 65 nM

Structure (SMILES): O=C1N=C(N2CCN(Cc3ccc(B(O)O)cc3)CC2)S/C1=C/c1ccc(Cl)c(Cl)c1
IC50 [5]: 13 nM

Structure (SMILES): N#Cc1ccc(Oc2ccc3c(c2)COB3O)cc1 [CRISABOROLE]
Ki [3]: 173 nM

Other lines, results leading:

IC50 [2]: 0.01 µg/mL (≈ 0.0323 µM)
Structure (SMILES): COc1cc(C(=O)/C=C/c2ccc3c(c2)B(O)OC3)ccc1N

IC50 [4]: 0.32 nM
Structure (SMILES): CC(=O)CCCOc1cc(C#N)c(Cl)nc1Oc1ccc2c(c1)COB2O

IC50 [4]: 3 nM
Structure (SMILES): CC(C)OCCOc1cc(C#N)cnc1Oc1ccc2c(c1)COB2O

IC50 [5]: 130 nM
Structure (SMILES): O=C(OCc1cc(Cl)cc(Cl)c1)N1CCN(C2CN(C(=O)c3ccc4c(c3)COB4O)C2)CC1
